Results published in patent publication US8653242B2, “Therapeutic antibodies against flagellated Pseudomonas aeruginosa” (priority 2010, dated 2014).
In brackets after ≈: the same amount, converted by molar mass. Like-named read-outs stand apart in the source and are kept apart here.

System: Ka02 multi-drug resistant P. Aeruginosa strain
Test: Antibiogram of Ka02 (Vitek MIC); as to Final (sensitive/resistant call): key: S = antibiotic sensitive; R = antibiotic resistance
Format: cell-based
Set-up: MIC site #2: unit not given here
Settings: for Vitek (sensitive/resistant call): calls of the two sites; for MIC: Pseudomonas aeruginosa
[1] = read-out: MIC site #1, heading: MIC site #1, Ka02, Vitek, testing site #1
[2] = read-out: MIC site #2, heading: MIC site #2, Ka02, Vitek, testing site #2

Row | Molecule | Final (sensitive/resistant call) (Ka02) | Vitek (sensitive/resistant call) (Ka02) | MIC [1] | MIC [2] | MIC (read-out: MIC site #2) | MIC site #2 (Ka02, Vitek, testing site #2)
1 | NCC[C@H](O)C(=O)N[C@@H]1C[C@H](N)[C@@H](O[C@H]2O[C@H](CN)[C@@H](O)[C@H](O)[C@H]2O)[C@H](O)[C@H]1O[C@H]1O[C@H](CO)[C@@H](O)[C@H](N)[C@H]1O [Amikacin] | S | S/S |  |  |  | 
2 | C[C@H]1[C@H](NC(=O)/C(=N\OC(C)(C)C(=O)O)c2csc(N)n2)C(=O)N1S(=O)(=O)O [Aztreonam] | R | R |  |  |  | 
3 | CO/N=C(\C(=O)N[C@@H]1C(=O)N2C(C(=O)[O-])=C(C[N+]3(C)CCCC3)CS[C@H]12)c1csc(N)n1 [Cefepime] | R | R/R |  |  |  | 
4 | CO/N=C(\C(=O)N[C@@H]1C(=O)N2C(C(=O)O)=C(COC(C)=O)CS[C@H]12)c1csc(N)n1 [Cefotaxime] | R | R/R |  |  |  | 
5 | CC(C)(O/N=C(\C(=O)N[C@@H]1C(=O)N2C(C(=O)[O-])=C(C[n+]3ccccc3)CS[C@H]12)c1csc(N)n1)C(=O)O [Ceftazidime] | S-R | S/R | 8 µg/mL (≈ 14.6 µM) |  |  | 
6 | O=C(N[C@H](CO)[C@H](O)c1ccc([N+](=O)[O-])cc1)C(Cl)Cl [Chloramphenicol] | R | R |  |  |  | 
7 | O=C(O)c1cn(C2CC2)c2cc(N3CCNCC3)c(F)cc2c1=O [Ciprofloxacin] | R | R/R | 4 µg/mL (≈ 12.1 µM) | ≥ 4 µg/mL |  | 
8 | C[C@H]1COc2c(N3CCN(C)CC3)c(F)cc3c(=O)c(C(=O)O)cn1c23 [Levofloxacin] | R | R |  | ≥ 8 µg/mL |  | 
9 | C[C@@H](O)[C@H]1C(=O)N2C(C(=O)O)=C(S[C@@H]3CN[C@H](C(=O)N(C)C)C3)[C@H](C)[C@H]12 [Meropenem] | R | R/R |  |  |  | 
10 | CN(C)c1ccc(O)c2c1C[C@H]1C[C@H]3[C@H](N(C)C)C(O)=C(C(N)=O)C(=O)[C@@]3(O)C(O)=C1C2=O [Minocycline] | R |  |  |  |  | 
11 | CCN1CCN(C(=O)N[C@@H](C(=O)N[C@@H]2C(=O)N3[C@@H]2SC(C)(C)[C@@H]3C(=O)O)c2ccccc2)C(=O)C1=O [Piperacillin] | R | R |  |  |  | 
12 | CN(C)c1cc(NC(=O)CNC(C)(C)C)c(O)c2c1C[C@H]1C[C@H]3[C@H](N(C)C)C(O)=C(C(N)=O)C(=O)[C@@]3(O)C(O)=C1C2=O [Tigecycline] | R | R |  |  | ≥ 8 µg/mL | 
13 | NC[C@H]1O[C@H](O[C@H]2[C@H](O)[C@@H](O[C@H]3O[C@H](CO)[C@@H](O)[C@H](N)[C@H]3O)[C@H](N)C[C@@H]2N)[C@H](N)C[C@@H]1O [Tobramycin] | R | R/I |  | 8 µg/mL (≈ 17.1 µM) |  | 
14 | Amoxicillin/Calvulanic acid | R | R |  |  |  | 32
15 | Ampicillin/Sulbactam | R | R/R |  |  |  | 
16 | Colistin | S | S |  |  |  | 2
17 | Gentamicin |  | R/S |  |  |  | 4
18 | Piperacillin/Tazobactam | R | R/R |  |  |  | 
19 | Ticracillin/CA | R | R |  |  |  | 
20 | Trimethoprim-Sulfamethoxazole | R | R/R |  |  |  | 
